The numbers were not newly measured in US20200199640A1, “PROCESS FOR OBTAINING […] A HOST CELL COMPRISING POLYNUCLEOTIDES ENCODING FOR PO[…] IN THE OMPHALOTIN BIOSYNTHESIS” (TECHNISCHE UNIVERSITÄT BERLIN, priority 2017, published 2020), which cites them from elsewhere.

Non-standard residues stand in square brackets, D forms with d. Residues, ends and D or L forms follow the SMILES beside them. ξ: configuration not given here. NMeIle(3ξ) = CCC(C)[C@H](NC)C(=O)O; Ile(3ξ) = CCC(C)[C@H](N)C(=O)O; NMeV = CN[C@H](C(=O)O)C(C)C; Sar = CNCC(=O)O

Series [1] concerns Meloidogyne incognita. The conditions noted are these: literature statement (A. Mayer et al, Pestic. Sci. 1999, 55, 27-30).
For series [2] the following is noted: literature statement (A. Mayer et al, Pestic. Sci. 1999, 55, 27-30).
The conditions of series [3]: literature statement (A. Mayer et al, Pestic. Sci. 1999, 55, 27-30). The source holds these as a separate data set.
For series [4] the following is noted: literature statement (A. Mayer et al, Pestic. Sci. 1999, 55, 27-30). The source holds these as a separate data set.

On to `CCC(C)[C@@H]1NC(=O)[C@H](C(C)C)N(C)C(=O)[C@H](Cc2c[nH]c3ccccc23)NC(=O)CN(C)C(=O)[C@H](C(C)CC)N(C)C(=O)[C@H](C(C)C)NC(=O)CN(C)C(=O)[C@H](C(C)CC)N(C)C(=O)[C@H](C(C)C)N(C)C(=O)CN(C)C(=O)[C@H](C(C)C)N(C)C(=O)[C@H](C(C)C)N(C)C1=O` (stereo partly shown) [Omphalotin A] (cyclo([Ile(3ξ)][NMeV][NMeV][Sar][NMeV][NMeIle(3ξ)][Sar]V[NMeIle(3ξ)][Sar]W[NMeV])), for which, in series [1], the “activity against the plant pathogen nematode Meloidogyne incognita” value was “strong and selective activity”. Besides, in series [2], the phytotoxic activity result is “no further phytotoxic, antibacterial or antifungal activities”. The antibacterial activity entry in series [3] is on record as “no further phytotoxic, antibacterial or antifungal activities”. Further, in series [4], the antifungal activity entry is on record as “no further phytotoxic, antibacterial or antifungal activities”.
